Measurements reported in PubChem BioAssay (NCI).
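1) Cells in 96-well plates. 2) Compound, 48 h, 5 concentrations. 3) Linear interpolation between surrounding doses. 4) Unreached endpoint = highest concentration. TGI is the concentration that stops growth completely.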

Tests used:
Test in all cases: growth of human tumour cells (NCI), 48 h
A549 NSCLC = test system: A549 NSCLC
EKVX NSCLC = test system: EKVX NSCLC
HOP-92 NSCLC = test system: HOP-92 NSCLC
SF-539 CNS = test system: SF-539 CNS
HCT-15 colon = test system: HCT-15 colon
786-0 renal = test system: 786-0 renal
MDA-MB-435 = test system: MDA-MB-435
UO-31 renal = test system: UO-31 renal
SF-295 CNS = test system: SF-295 CNS
RPMI-8226 leukemia = test system: RPMI-8226 leukemia
SW-620 colon = test system: SW-620 colon
HL-60(TB) leukemia = test system: HL-60(TB) leukemia
KM12 colon = test system: KM12 colon
SNB-19 CNS = test system: SNB-19 CNS
SK-OV-3 ovarian = test system: SK-OV-3 ovarian
COLO 205 colon = test system: COLO 205 colon
CCRF-CEM leukemia = test system: CCRF-CEM leukemia
OVCAR-4 ovarian = test system: OVCAR-4 ovarian
M14 melanoma = test system: M14 melanoma
MDA-MB-231 breast = test system: MDA-MB-231 breast

Row | Compound | TGI (A549 NSCLC) [µM] | TGI (EKVX NSCLC) [µM] | TGI (HOP-92 NSCLC) [µM] | TGI (SF-539 CNS) [µM] | TGI (HCT-15 colon) [µM] | TGI (786-0 renal) [µM] | TGI (MDA-MB-435) [µM] | TGI (UO-31 renal) [µM] | TGI (SF-295 CNS) [µM] | TGI (RPMI-8226 leukemia) [µM] | TGI (SW-620 colon) [µM] | TGI (HL-60(TB) leukemia) [µM] | TGI (KM12 colon) [µM] | TGI (SNB-19 CNS) [µM] | TGI (SK-OV-3 ovarian) [µM] | TGI (COLO 205 colon) [µM] | TGI (CCRF-CEM leukemia) [µM] | TGI (OVCAR-4 ovarian) [µM] | TGI (M14 melanoma) [µM] | TGI (MDA-MB-231 breast) [µM]
1 | O=C(NCCCCNCCCNC(=O)c1cc(-c2ccccc2)nc2ccccc12)c1cc(-c2ccccc2)nc2ccccc12 | 3.01 | 3.52 | 3.01 | 3.81 | 3.46 | 3.03 | 3.17 | 3.21 | 3.17 | 6.33 | 3.1 |  |  |  |  |  |  |  |  | 
2 | COc1ccc(Nc2nc(N)c(C(=O)c3ccccc3)s2)cc1 | > 74.5 | 58.2 | > 92.7 | 0.0327 | 26.2 | 31.6 | > 100 | 44.2 | > 100 | 32.7 | > 100 | 0.271 | > 19.8 | > 100 | > 100 | 0.333 | > 80.6 | > 60.8 |  | 
3 | Cc1ccc(Nc2sc(C)cc2C#N)c([N+](=O)[O-])c1 | > 100 | > 100 | > 100 | > 100 | > 100 | > 100 | > 100 | > 100 | > 100 | > 100 | > 100 |  | > 100 | > 100 | > 100 | > 100 | > 100 | > 100 | > 100 | > 100
4 | O=C1CCCCC[C@]12SC[C@H]1CON=C12 | > 100 | > 100 | 50.2 | > 100 | > 100 | > 100 | 39.5 | > 100 | > 100 | > 100 | > 100 | > 100 | > 100 | > 100 | > 100 | > 100 | > 100 | > 100 | 62 | 
5 | C=Cc1cc2c(cc1O)CC[C@@H]1[C@@H]2CC[C@]2(C)[C@@H](O)CC[C@@H]12 | 19.9 | 29 |  | 5.53 | 28.8 | 14.3 | 4.29 | 20.5 | 10.5 |  | 14.2 | 7.27 | 14.9 | 13.6 | 28.3 | 30.1 | 17.2 | 26.9 | 17.7 | 18.7
6 | CCn1c(-c2ccc(C)cc2)cs/c1=N\C(P(=O)(O)O)P(=O)(O)O | > 100 | > 100 | > 100 | > 100 | > 100 | > 100 | > 100 | > 100 | > 100 | > 100 | > 100 | > 100 | > 100 | > 100 | > 100 | > 100 | > 100 |  | > 100 | > 100
7 | Nc1nc(N)c2nnn(C[C@H]3CC[C@@H](CO)C3)c2n1 | > 100 | > 100 | > 100 | > 100 | > 100 | > 100 | > 100 | > 100 | > 100 | > 100 | > 100 | > 100 | > 100 | > 100 | > 100 | > 100 | > 100 |  | > 100 | > 100
8 | O=C(OCC1CCCN2CCCCC12)c1ccncc1 (configuration not stated) | > 100 | > 100 | > 100 | > 100 | > 100 | > 100 | > 100 | > 100 | > 100 | > 100 | > 100 |  | > 100 | > 100 | > 100 | > 100 | > 100 | > 100 | > 100 | > 100
9 | S=C(c1c[nH]c2ccccc12)N1CCN(c2ccccc2)CC1 |  | > 100 |  | > 100 | > 100 | > 100 | > 100 |  | > 100 | > 100 | > 100 | > 100 | > 100 | > 100 | > 100 | > 100 | > 100 |  | > 100 | > 100
10 | CC(=N/NC(=S)N1CCCCC1)/C(C)=N\NC(=S)N1CCCCC1 | 4.04 | 3.11 | 2.85 | 5.58 | 5.31 | 3.1 | 3.79 | 2.79 | 3.74 | 5.13 |  |  |  | 3.54 | 3.32 | 3.62 |  | 3.46 | 4.57 | 5.63
11 | Cn1c2ccccc2n2c(=O)c3cccnc3c(C#N)c12 |  | > 100 | > 100 | > 100 | > 100 | > 100 | > 100 |  | > 100 | > 100 | > 100 |  | > 100 |  | > 100 | > 100 |  | > 100 |  | > 100
12 | CSc1nncc2[nH]cnc12 | > 100 | > 100 |  | > 100 | > 100 | > 100 | > 100 | > 100 | > 100 | > 100 | > 100 | > 100 | > 100 | > 100 |  | > 100 | > 100 |  | > 100 | > 100
13 | O=S(=O)(O)c1ccc2c(N=Nc3ccccc3Cl)c(O)ccc2c1 | > 100 | > 100 | > 100 |  | > 100 | > 100 | > 100 | > 100 | > 100 | > 100 | > 100 |  | > 100 | > 100 | > 100 | > 100 | > 100 | > 100 | > 100 | > 100
14 | Cc1ccc([N+](=O)[O-])cc1S(=O)(=O)Nc1ccc(C2=NNC(c3cccs3)C2)cc1 (configuration not stated) | > 100 | 64.2 | > 100 | > 100 | > 100 | > 100 | > 100 | > 100 | 63.9 | > 100 | > 100 | 50.9 | 76.1 | > 100 | 89.4 | 35.6 | > 100 | > 100 | 68.8 | 
15 | CC(=O)O[C@H]1C(=O)[C@@]2(C)[C@H]([C@H](OC(=O)c3ccccc3)[C@]3(O)C[C@H](OC(=O)[C@H](O)[C@@H](NC(=O)CC(C)C)c4ccccc4)C(C)=C1C3(C)C)[C@]1(OC(C)=O)CO[C@@H]1C[C@@H]2O | > 10 | > 10 | 9.85 | 0.196 | > 10 | > 10 |  | > 10 | 0.508 |  | > 10 | 0.00899 |  | > 10 |  | 0.0112 | > 10 | > 10 | > 10 | > 10
16 | O=C1/C(=C/c2cccs2)NC(=S)N1CN1CCOCC1 | > 100 | > 100 | > 100 |  | > 100 | > 100 | > 100 | > 100 | > 100 | > 100 | > 100 |  | > 100 | > 100 | > 100 | > 100 | > 100 |  | > 100 | > 100
17 | CCCC#CC(O)(C(=O)OC1CCN(C)CC1)C1CCCCC1 (configuration not stated) | > 100 | > 100 | > 100 | > 100 | > 100 | > 100 | > 100 | > 100 | > 100 | > 100 | > 100 |  | > 100 | > 100 | > 100 | > 100 | > 100 | > 100 | > 100 | > 100
18 | CC1(C)C[C@H](O)[C@H](O)[C@]23C(=O)O[C@H](O)[C@H]2C(C=O)=CC[C@@H]13 | > 100 | > 100 |  | > 100 | > 100 | > 100 | > 100 | > 100 | > 100 | > 100 | > 100 | > 100 | > 100 | > 100 |  | > 100 | > 100 |  |  | > 100
19 | CC(C)(C)OC(=O)NC(Cc1ccc(OCc2ccccc2)cn1)C(=O)N1CCSCC1 (configuration not stated) | > 100 | > 100 | > 100 | > 100 | > 100 | > 100 | > 100 | > 100 | > 100 | 59.1 | > 100 | 81.1 | > 100 | > 100 | > 100 | 33.1 | > 100 |  | > 100 | > 100
20 | OCCN=C1c2ccccc2C2C(c3ccccc31)C1c3ccccc3C(=NCCO)c3ccccc3C21 (configuration not stated) | 93 | > 100 |  | 36.5 | 63.9 | 47.2 | 40.9 | 32.6 | 30.6 | 37.2 | > 100 | 47.2 | 44 | 41.4 | 61.5 | 44.4 | 35.9 | 60.2 | 42.3 | 31.4
21 | COc1ccc2c(c1)CCCN1CCc3cc(OC)c(OC)cc3C21 (configuration not stated) | > 100 | > 100 |  | > 100 | > 100 | > 100 | > 100 | > 100 | > 100 | > 100 | > 100 | > 100 | > 100 | > 100 | > 100 | > 100 | > 100 |  | > 100 | > 100
22 | CC1C(c2ccc3c(c2)OCO3)c2cc3c(cc2OC1N1CCCCC1)OCO3 (configuration not stated) | > 100 | > 100 |  | > 100 | > 100 | > 100 | 62.8 | > 100 | > 100 | > 100 | > 100 |  | > 100 | > 100 |  | > 100 | > 100 |  | > 100 | 
23 | Fc1cc(-c2ncc(Cl)cc2Cl)c2cccccc1-2 | > 100 | > 100 |  | > 100 | > 100 | > 100 |  | > 100 | > 100 |  |  |  | > 100 | > 100 | > 100 | > 100 |  |  | > 100 | > 100
24 | COc1ccc(N=C2C(=Nc3ccc(OC)cc3)N(S(=O)(=O)c3ccccc3)C(=S)N2c2ccc(OC)cc2)cc1 | > 100 | > 100 | > 100 | > 100 | > 100 | > 100 | > 100 | > 100 | > 100 | > 100 | > 100 |  | > 100 | > 100 | > 100 | > 100 |  |  | > 100 | 92.1
25 | Nn1c(SCC(=O)NCc2ccccc2)nc2ccccc2c1=O | > 100 | > 100 | > 100 | > 100 | > 100 | > 100 | > 100 | > 100 | > 100 | > 100 | > 100 |  | > 100 | > 100 |  | > 100 | > 100 | > 100 | > 100 | > 100
26 | CCOC(=O)C(C)(C)/C=C\C(Cl)=C(Cl)Cl | > 100 | > 100 | > 100 | > 100 |  | > 100 | > 100 | > 100 | > 100 | > 100 | > 100 | > 100 | > 100 | > 100 | > 100 | > 100 | > 100 |  | > 100 | > 100
